Source: EP1038864A1, “NOVEL METALLOPROTEINASE INHIBITORS” (FUJI YAKUHIN KOGYO KABUSHIKI KAISHA, priority 1997, dated 1999)
Where two headings read alike, the source gives them in different places. Values belong to the compound of their own block, whether it stands above or below them.

Experiments:
[1] = Assay for Oral Absorption in Rat (plasma level by MMP-3 inhibition bioassay); details: for AUC: male, Lewis
Protocol: (§2) Each compound of the present invention was dissolved in distilled water for injection and orally administered to rats (Lewis strain line, male, body weight: about 200 g) at a dose of 100mg/kg. From 30 minutes to 4 hours after the administration, a series of blood chronologically collected from rat fundus oculi were centrifuged (3000rpm for 10 minutes at 4°C) to give plasma samples. Each plasma sample (200 µl) was filtered through an ultrafiltration membrane by centrifugation at 1500 x G for 3 minutes using a micropartition UF unit (Centrifree-MPS-3: 30,000 MW cut-off, Amicon Corp., Beverly, MA). […] The reaction was stopped by adding 900 µl of 3% aqueous acetic acid to the reaction mixture. The fluorescence of the resulting solution was read using an excitation wavelength of 325 nm and an emission wavelength of 393 nm. The concentration of each test compound in rat plasma samples was calculated using a standard curve which was prepared based on a variety of doses.

[2] = rat, in vivo, po, 100 mg/kg, 4 h
Protocol: as §2

TNF-α Convertase = TNF-α Convertase (Homo sapiens, UniProt P78536); assay: Assay for inhibition of TNF-α production in LPS-stimulated, PMA-differentiated U937 cells
Protocol: Human monocytic leukemia cell line U937 (human histiocytic lymphoma cell line U937) cells were cultured in RPMI 1640 (Nissui Pharmaceutical Co., Ltd., Japan) supplemented with 5% fetal calf serum (FCS; IBL, Japan) in an incubator at 37°C under 5% CO2, then transferred to multiplates at a density of 1 x 10^6 cells/1 ml/well, and incubated overnight in the presence of 10^-7 M phorbol 12-myristate 13-acetate (Wako Pure Chemical Industries, Ltd., Japan) to form differentiated macrophage-like cells. To the resultant cells was added E. coli O127:B8 lipopolysaccaride (LPS, 0.1 µg/ml; Sigma) alone or along with each compound of the present invention, and the treated cells were then incubated for 6 hours in an incubator under 5% CO2 at 37°C. After the incubation, the cultures were collected and centrifuged at 3000 rpm for 10 minutes to give supernatants which were diluted with purified water and then assayed using a TNF-α assay kit, Genzyme (Table 3).

[3] = target: human fibroblast stromelysin (Homo sapiens, UniProt P08254); assay: Assay for inhibition of stromelysin (fluorescein-labeled casein substrate); assay type: biochemical
Protocol: (§1) Described below are assays for biological activities of the compounds according to the present invention, formulations, dosage forms and dosage levels thereof, and miscellaneous matters. The efficacy of the compounds represented by the formula (I) according to the present invention as inhibitors of human fibroblast collagenase (metalloproteinase involved in the breakdown of tissues) is determined by a procedure based on the method of Y. Murawaki et al., Journal of Hepatology, 18, p328-334 (1993). The efficacy of the compounds (I) of this invention as inhibitors of human fibroblast stromelysin is determined by a procedure based on the method of S. S. Twining, Anal. Biochem., 143, p30 (1984). The assay results obtained are shown hereinbelow, together with biological examples which illustrate embodiments of the assay protocols.
The efficacy of compounds of the present invention to act as inhibitors of human fibroblast stromelysin was determined by the procedure of Twining (Anal. Biochem., 143, p.30, 1984), compared with a reference compound.
Prostromelysin was activated by incubation with 20 µg/ml human plasmin at 37°C for 2 hours, and the reaction was stopped by addition of 2.8 mg/ml aqueous diisopropyl fluorophosphate. The inhibition was assayed using, as a substrate, fluorescein-labeled casein. To a solution of the substrate (1 mg/ml) in a 50 mM Tris-HCl buffer, pH 7.8, containing 10mM aqueous calcium chloride was added the activated stromelysin. The resultant solution was incubated at 37°C for 2 hours. The digestion of the substrate with the enzyme was stopped by addition of 5% trichloroacetic acid. Undigested substrates were precipitated by centrifugation at 3000 x g for 20 minutes. The supernatant was collected, followd by additon of a 0.5M Tris-HCl buffer, pH 8.5. The fluorescence was read using an excitation wavelength of 495 nm and an emission wavelength of 520 nm. The inhibitory potency of the compounds was calculated. […] The resulting assay data for representative examples are shown in Table 2, compared with the reference compound.

[4] = target: T1, human fibroblast collagenase (Homo sapiens, UniProt P03956); assay: Assay for inhibition of collagenase (fluorescein-labeled bovine type I collagen substrate); assay type: biochemical; details: activated human fibroblast procollagenase, 35°C, 2 hours, pH 7.5; read-out: Inhibition of MMP-1
T1 sequence (P03956 100-469): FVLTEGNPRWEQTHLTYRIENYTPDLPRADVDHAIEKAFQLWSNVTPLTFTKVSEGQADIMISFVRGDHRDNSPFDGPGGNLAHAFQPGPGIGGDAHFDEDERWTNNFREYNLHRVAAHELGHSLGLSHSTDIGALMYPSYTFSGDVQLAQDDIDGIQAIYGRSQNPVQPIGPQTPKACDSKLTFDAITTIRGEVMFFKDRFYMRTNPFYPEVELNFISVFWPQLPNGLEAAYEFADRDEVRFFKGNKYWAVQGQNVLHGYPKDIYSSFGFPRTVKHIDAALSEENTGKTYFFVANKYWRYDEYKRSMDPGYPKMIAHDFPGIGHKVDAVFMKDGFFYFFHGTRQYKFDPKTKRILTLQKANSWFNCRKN
Protocol: as §1
The efficacy of compounds of the present invention to act as inhibitors of human fibroblast collagenase was determined by the procedure of Y. Murawaki et al. (Journal of Hepatology, 18, p.328-334, 1993), compared with a reference compound.
Procollagenase was activated by incubation with 2 mM 4-aminophenylmercuric acetate (APMA) at 35°C for 2 hours. The inhibition was assayed using, as a substrate, fluorescein-labeled bovine type I collagen. To a solution of the substrate (0.5 mg/ml) in a 50 mM Tris-HCl buffer, pH 7.5, containing 0.4M aqueous sodium chloride and 10 mM aqueous […] was added the activated collagenase. The resultant solution was incubated at 35°C for 2 hours. The digestion of the substrate with the enzyme was stopped by addition of 80 mM o-phenanthroline, followed by addition of a porcine elastase solution formed by dissolving 25 µg/ml porcine elastase in the aforementioned Tris-HCl buffer. The mixture was incubated at 37°C for 10 minutes. To the resulting solution was added 70% ethanol, and a 170 mM Tris-HCl buffer, pH 9.5, containing 0.67M aqueous sodium chloride. Undigested substrates were precipitated by centrifugation at 3000 x g for 20 minutes. The supernatant was collected and the fluorescence was read using an excitation wavelength of 495 nm and an emission wavelength of 520 nm. The inhibitory potency of the compounds was calculated. […] The resulting assay data for representative examples are shown in Table 1, compared with the reference compound. […]

in vivo = details: rat, po, 100 mg/kg
Protocol: as §2

[5] = plasmin-activated human fibroblast prostromelysin, 37°C, 2 hours, pH 7.8, read-out: Inhibition of MMP-3

Chain of human fibroblast stromelysin (P08254 100-477): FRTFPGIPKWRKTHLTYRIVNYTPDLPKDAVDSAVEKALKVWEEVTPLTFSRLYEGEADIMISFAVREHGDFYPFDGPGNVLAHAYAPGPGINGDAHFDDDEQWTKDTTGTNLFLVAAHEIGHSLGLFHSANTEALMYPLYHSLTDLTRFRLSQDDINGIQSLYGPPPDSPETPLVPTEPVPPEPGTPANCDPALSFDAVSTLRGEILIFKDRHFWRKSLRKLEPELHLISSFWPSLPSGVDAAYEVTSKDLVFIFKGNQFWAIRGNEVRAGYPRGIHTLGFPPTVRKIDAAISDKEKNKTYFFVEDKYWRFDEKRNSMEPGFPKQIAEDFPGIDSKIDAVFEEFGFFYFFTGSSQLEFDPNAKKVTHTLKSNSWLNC
Chain of TNF-α Convertase (P78536 215-824): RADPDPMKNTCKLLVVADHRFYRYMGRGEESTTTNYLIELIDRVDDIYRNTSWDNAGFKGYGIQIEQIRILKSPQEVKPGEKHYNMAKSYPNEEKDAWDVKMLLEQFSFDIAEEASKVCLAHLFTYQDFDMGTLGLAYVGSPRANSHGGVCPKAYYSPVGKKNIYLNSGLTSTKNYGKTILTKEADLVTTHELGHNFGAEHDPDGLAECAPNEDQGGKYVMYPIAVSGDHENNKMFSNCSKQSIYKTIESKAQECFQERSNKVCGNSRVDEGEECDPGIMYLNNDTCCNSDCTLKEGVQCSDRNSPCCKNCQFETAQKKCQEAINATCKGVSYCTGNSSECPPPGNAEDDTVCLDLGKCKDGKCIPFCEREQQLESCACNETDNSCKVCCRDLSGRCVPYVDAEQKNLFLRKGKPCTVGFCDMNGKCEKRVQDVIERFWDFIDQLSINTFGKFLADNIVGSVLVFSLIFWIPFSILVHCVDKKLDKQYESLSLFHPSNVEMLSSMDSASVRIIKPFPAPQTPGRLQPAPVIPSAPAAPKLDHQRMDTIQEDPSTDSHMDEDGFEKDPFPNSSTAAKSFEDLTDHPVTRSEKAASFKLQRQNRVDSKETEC

Compound: CC(=O)O.CCC(=N)NCCCC[C@H](NC(=O)[C@H](CC(C)C)C(C)C(=O)NO)C(=O)NC (mixture of isomers) [Compound No. 45, N^a-[4-(Hydroxyamino)-2(R)-isobutyl-3(RS)-methylsuccinyl]-N^e-propionimidoyl-L-lysine N-methylamide · 1 acetate]
AUC0.5-4 ([1]; rats (Lewis, male), orally, 100mg/kg, 0.5 to 4 hours after administration): 7067 ng·h/mL

Compound: CC(=N)NCCCC[C@H](NC(=O)[C@H](CC(C)C)C(C)C(=O)NO)C(=O)NC(C)CO.CC(=O)O (mixture of isomers) [Compound No. 39, N^a-[4-(Hydroxyamino)-2(R)-isobutyl-3(RS)-methylsuccinyl]-N^e-acetimidoyl-L-lysine N-[2-hydroxy-1(RS)-methylethyl]amide · 1 acetate]
AUC0.5-4 [2]: 14996 ng·h/mL

Compound: CNC(=O)C(CCCCNC(C)=N)NC(=O)C(CC(C)C)C(C)C(=O)NO [Compound No. 22, N^a-[4-(Hydroxyamino)-2(R)-isobutyl-3(RS)-methylsuccinyl]-N^e-acetimidoyl-L-lysine N-methylamide · 1 acetate]
AUC at 4 h ([1]; rat, po, 100 mg/kg): 9130 ng·h/mL | IC50 (TNF-α Convertase): 2080 nM

IC50 [3, 5]: 18 nM | AUC ([1]; rat, po, 100 mg/kg): 3130 ng·h/mL | IC50 (TNF-α Convertase): 1010 nM
Compound: CNC(=O)C(Cc1ccc(CNC(C)=N)cc1)NC(=O)C(CC(C)C)C(C)C(=O)NO (single isomer, unassigned) [Compound No. 41, N^a-[4-(Hydroxyamino)-2(R)-isobutyl-3(R or S)-methylsuccinyl]-4'-acetimidoyliminomethyl-L-phenylalanine N-methylamide · 1 acetate]

Compound: CC(=O)O.CC(=O)O.CNC(=O)[C@H](CCCN)NC(=O)[C@H](CC(C)C)C(Cc1ccc(CN)cc1)C(=O)NO (single isomer, unassigned) [Compound No. 48, N^a-[4-(Hydroxyamino)-2(R)-isobutyl-3(R or S)-(p-aminomethylbentyl)succinyl]-L-ornithine N-methylamide· 2 acetate]
AUC0.5-4 [2]: 20203 ng·h/mL

Compound: CC(=O)O.CC(=O)O.CNC(=O)[C@H](Cc1ccc(CN)cc1)NC(=O)[C@H](CC(C)C)C(Cc1ccc(CN)cc1)C(=O)NO (single isomer, unassigned) [Compound No. 49, N^a-[4-(Hydroxyamino)-2(R)-isobutyl-3(R or S)-(p-aminomethylbenzyl)succinyl]-4'-aminomethyl-L-phenylalanine N-methylamide · 2 acetate]
AUC0.5-4 [2]: 15292 ng·h/mL

IC50 [4]: 15 nM | IC50 [3, 5]: 42 nM | AUC ([1]; rat, po, 100 mg/kg): 3380 ng·h/mL | IC50 (TNF-α Convertase): 460 nM
Compound: CNC(=O)C(CCCN)NC(=O)C(CC(C)C)C(CCCc1ccc(NC(=N)N)cc1)C(=O)NO [Compound No. 46, N^a-[4-(Hydroxyamino)-2(R)-isobutyl-3(RS)-[3-(4'-guanidinophenyl)propyl]succinyl]-L-ornithine-N-methylamide · 2 acetate]

AUC0.5-4 [2]: 5662 ng·h/mL
Compound: N^a-[4-(Hydroxyamino)-2(R)-isobutyl-3(R or S)-[5-(isopropylimino)pentyl]succinyl]-L-alanine N-methylamide [Compound No. 63]

Compound: CC(=O)O.CNC(=O)[C@H](Cc1ccc(CNC(C)=N)cc1)NC(=O)[C@H](CC(C)C)[C@H](O)C(=O)NO [Compound No. 43, N^a-[4-(Hydroxyamino)-2(R)-isobutyl-3(S)-hydroxysuccinyl]-4'-acetimidoyliminomethyl-L-phenylalanine N-methylamide · 1 acetate]
AUC0.5-4 [2]: 3289 ng·h/mL

Compound: CC(=O)O.CNC(=O)[C@H](C)NC(=O)[C@H](CC(C)C)C(Cc1cccc(CN)c1)C(=O)NO (single isomer, unassigned) [Compound No. 53, N^a-[4-(Hydroxyamino)-2(R)-isobutyl-3(R or S)-(m-aminomethylbenzyl)succinyl]-L-alanine N-methylamide · 1 acetate]
AUC0.5-4 [2]: 4816 ng·h/mL

IC50 ([3]; read-out: Inhibition of MMP-3, plasmin-activated human fibroblast prostromelysin, 37°C, 2 hours, pH 7.8): 62 nM | AUC at 4 h (in vivo): 9020 ng·h/mL | IC50 (TNF-α Convertase; read-out: Inhibition of TACE, U937 cells, LPS 0.1 µg/ml, 6 hours, TNF-α in supernatant by assay kit): 603 nM
Compound: CNC(=O)[C@H](CCCCN)NC(=O)[C@H](C(C)C)C(CCCc1ccccc1)C(=O)NO (single isomer, unassigned) [Compound No. 74, N^a-[4-(Hydroxyamino)-2(R)-isopropyl-3(R or S)-(3-phenylpropyl)succinyl]-L-lysine N-methylamide· 1 acetate]

IC50 [3]: 17 nM | AUC at 4 h (in vivo): 1930 ng·h/mL | IC50 (TNF-α Convertase): 129 nM
Compound: CC(=N)NCCCCC(NC(=O)C(CC(C)C)C(CCCc1ccccc1)C(=O)NO)C(=O)NCCN(C)C [Compound No. 44, N^a-[4-(Hydroxyamino)-2(R)-isobutyl-3(RS)-(3-phenylpropyl)-succinyl]-N^e-acetimidoyl-L-lysine N-(2-N',N'-dimethylaminoethyl)amide · 2 acetate]

IC50 [3, 5]: 24 nM | AUC ([1]; rat, po, 100 mg/kg): 6260 ng·h/mL
Compound: CC(=N)NCc1ccc(CC(NC(=O)C(CC(C)C)C(C)C(=O)NO)C(=O)NN2CCOCC2)cc1 (single isomer, unassigned) [Compound No. 42, N^a-[4-(Hydroxyamino)-2(R)-isobutyl-3(R or S)-methylsuccinyl]-4'-acetimidoyliminomethyl-L-phenylalanine N-(morpholin-4-yl)-amide · 1 acetate]
